Source: PubChem BioAssay AID2060903 (Molecular Pharmacology Branch, DTP, NCI, 2025)

Test system: 377384-186-R-J1-PDC complex spheroid viability
Test: Anticancer human tumor 377384-186-R-J1-PDC patient-derived pancreatic carcinoma cell line growth inhibition [RAS]
Details: for IC50: curve of first compound; for viability, T/C: stronger effect = lower value
Outline: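 Tumour cells grown as complex spheroids with HUVEC endothelial cells and mesenchymal stem cells, treated with RAS pathway inhibitor combinations. Each agent spans half-log steps from near clinical Cmax, or 10 microM where Cmax is unknown.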
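Also: spheroids exposed to compounds for seven days before readout.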

CC1(O)CCCC1n1c(=O)c(C(F)F)cc2cnc(NC3CCN(S(C)(=O)=O)CC3)nc21 (configuration not stated) + CCn1c(-c2cc(N3CCN(C)CC3)cnc2C(C)OC)c2c3cc(ccc31)-c1csc(n1)CC(NC(=O)C1CC1C)C(=O)N1CCCC(N1)C(=O)OCC(C)(C)C2
IC50 (second compound 0.000949 µM): < 31.6 nM
IC50 (second compound 0.003 µM): < 31.6 nM
IC50 (second compound 0.00949 µM): < 31.6 nM
IC50 (second compound 0.03 µM): < 31.6 nM
IC50 (second compound 0.0949 µM): < 31.6 nM
IC50 (second compound 0.3 µM): < 31.6 nM
viability, T/C (second compound 0.000949 µM, first compound 0.0316 µM): 46.6%
viability, T/C (second compound 0.000949 µM, first compound 0.1 µM): 24.9%
viability, T/C (second compound 0.000949 µM, first compound 0.316 µM): 16.1%
viability, T/C (second compound 0.000949 µM, first compound 1 µM): 14.2%
viability, T/C (second compound 0.000949 µM, first compound 3.16 µM): 18.5%
viability, T/C (second compound 0.000949 µM, first compound 10 µM): 4.43%
viability, T/C (second compound 0.003 µM, first compound 0.0316 µM): 20.3%
viability, T/C (second compound 0.003 µM, first compound 0.1 µM): 10.9%
viability, T/C (second compound 0.003 µM, first compound 0.316 µM): 9.42%
viability, T/C (second compound 0.003 µM, first compound 1 µM): 11.9%
viability, T/C (second compound 0.003 µM, first compound 3.16 µM): 13.4%
viability, T/C (second compound 0.003 µM, first compound 10 µM): 2.79%
viability, T/C (second compound 0.00949 µM, first compound 0.0316 µM): 4.59%
viability, T/C (second compound 0.00949 µM, first compound 0.1 µM): 4.26%
viability, T/C (second compound 0.00949 µM, first compound 0.316 µM): 4.8%
viability, T/C (second compound 0.00949 µM, first compound 1 µM): 4.95%
viability, T/C (second compound 0.00949 µM, first compound 3.16 µM): 6.03%
viability, T/C (second compound 0.00949 µM, first compound 10 µM): 2.54%
viability, T/C (second compound 0.03 µM, first compound 0.0316 µM): 2.77%
viability, T/C (second compound 0.03 µM, first compound 0.1 µM): 2.5%
viability, T/C (second compound 0.03 µM, first compound 0.316 µM): 3.09%
viability, T/C (second compound 0.03 µM, first compound 1 µM): 3.54%
viability, T/C (second compound 0.03 µM, first compound 3.16 µM): 3.12%
viability, T/C (second compound 0.03 µM, first compound 10 µM): 2%
viability, T/C (second compound 0.0949 µM, first compound 0.0316 µM): 1.91%
viability, T/C (second compound 0.0949 µM, first compound 0.1 µM): 2.25%
viability, T/C (second compound 0.0949 µM, first compound 0.316 µM): 2.46%
viability, T/C (second compound 0.0949 µM, first compound 1 µM): 2.54%
viability, T/C (second compound 0.0949 µM, first compound 3.16 µM): 1.98%
viability, T/C (second compound 0.0949 µM, first compound 10 µM): 2.3%
viability, T/C (second compound 0.3 µM, first compound 0.0316 µM): 2%
viability, T/C (second compound 0.3 µM, first compound 0.1 µM): 2.25%
viability, T/C (second compound 0.3 µM, first compound 0.316 µM): 2.49%
viability, T/C (second compound 0.3 µM, first compound 1 µM): 2.5%
viability, T/C (second compound 0.3 µM, first compound 3.16 µM): 1.75%
viability, T/C (second compound 0.3 µM, first compound 10 µM): 1.85%
